# Earlier results, collected in US8067542B1 (priority 2003, dated 2011).
# Tested on: Verticillium dahliae
# Conditions: AlfAFP expressed in potato (Gao et al, 2000); cited from earlier work
substance,measurement,value
"Alf - wt: native alfalfa antifungal protein (plant defensin from Medicago sativa seeds), SEQ ID NO:2 (RTCENLADKYRGPCFSGCDTHCTTKENAVSGRCRDDFRCWCTKRC; listed as Medicago sativa)",resistance to early dying disease in potato,confer resistance to early dying disease
